Data on nine molecules can be found in publication PMC6261607, “Novel high–throughput myofibroblast assays identify agonists with therapeutic potential in pulmonary fibrosis that act via EP2 and EP4 receptors” (PLoS ONE, 2018).

Read-outs that look alike come from different tables or passages of the source.

Assay [1] deals with α–SMA protein in NHLF cells. As to the kind of experiment: RapidFire MS/MS quantification of α–SMA (IPQA), standard assay. It counts as cell-based, human. The method, then: (§1) Cell culture medium was removed and cells were lysed on ice by adding 5 μl / well of pre–cooled protein extraction buffer containing 10 mM Tris–HCl (pH 8.0), 6 M urea and 2 M thiourea and shaking on ice on a plate shaker at 600 rpm for 30 min.
(§2) Cell lysate was transferred to a 96–well polypropylene–PCR–plate. 15 μl / well denaturation buffer (6 M urea, 50 mM ammonium bicarbonate) and 2 μl / well of 50 mM TCEP were added and samples were denatured for 1 h at 60°C using the Veriti 96–well Fast Thermal Cycler System (Applied Biosystem) with a heated lid. Plates were allowed to cool to RT. Subsequently, 2 μl of 100 mM iodoacetamide were added per well to derivatize cysteine residues. Plates were then sealed and vortexed for 2 min in the dark and incubated for 30 min at 37°C in a thermal cycler with a heated lid. 90 μl of 50 mM ammonium bicarbonate pH 7.8 were added, followed by the addition of 10 μl of trypsin at 0.02 μg / ml. Samples were trypsin–digested overnight at 37°C in a thermal cycler with heated lid. […] Samples were desalted under vacuum using an Oasis HLB 96–well (30 μm particle size, 5 mg sorbent / well) reverse phase cartridge according to the manufacturer’s instructions and eluted with 170 μl of 90% acetonitrile, 0.1% formic acid. Samples were dried down with a flow of nitrogen at 40°C, left to cool to RT and re–suspended in 40 μl 5% acetonitrile, 0.1% formic acid on a plate shaker set to 1400 rpm for 5 min. Plates were centrifuged at 4,000 rpm for 10 min and 2 times 12 μl / well of supernatant were transferred into separate 96–well plates (Greiner Bio–One), sealed and stored at 4°C until analyzed by MS / MS.
(§3) Surrogate tryptic peptides were chosen for detection of COL1 (COL1A1), α–SMA (ACTA) and tubulin (TBA1A1) and crude synthetic peptides were purchased from Thermo Fischer. After several rounds of optimization following standard workflows, […] (COL1 / COL1A1), […] (α–SMA / ACTA) and […] LC–MS / MS analysis was performed on a RapidFire™ RF360 system (Agilent Technologies) coupled to an API 5500 (ABSciex) with positive ion electrospray ionization. […] Detection was performed using multiple reaction monitoring (MRM) mode to monitor parent⟶product ion transitions (m / z). […] The source parameters were curtain gas (CUR) nitrogen: 20 psig; collision gas (CAD): 7 psig; ion source gas 1: 50.0 psig; ion source gas 2: 50.0 psig; ion spray voltage (IS): 5500 V; turbo heater temperature (TEM): 600°C; entrance potential (EP): 10V. Peak areas for COL1A1 and ACTA were normalized by dividing by TBA1A peak area.

In assay [2] the test system is COL1 protein in TGF–β1–induced NHLF myofibroblasts. As to the kind of experiment: MS/MS COL1, NHLF myofibroblast reversal assay. It counts as cell-based, human. Conditions: Homo sapiens, Col1. The method, then: as §1, §2, §3
To identify compounds with potential to revert differentiated myofibroblasts to fibroblasts the assay procedures were modified. After 24 h starvation, NHLF cells were stimulated with 5 ng / ml TGF–β1 for 24 h. At t = 24 h TGF–β1 was removed and either vehicle (DMSO) or compounds were added and incubated with the cells for a further 72 h.

Where [3] appears, read: Homo sapiens, NHLF, 5 ng/ml TGF–β1, lysed 48 h after TGF–β1, normalized to tubulin, mean ± SD, read-out: MS / MS α–SMA IC50.
[4] abbreviates: reversal assay: 24 h 5 ng/ml TGF–β1, washed, 72 h compound, normalized to tubulin, read-out: MS / MS COL1 IC50.
The mark [5] stands for this setting: Homo sapiens, NHLF, 5 ng/ml TGF–β1, 48 h, representative experiment of supplementary figure, read-out: IC50 on α–SMA (curve of a single experiment).
[6] abbreviates: NHLF pre–stimulated 24 h with 5 ng/ml TGF–β1, representative experiment, S7 Fig E, read-out: IC50, reversal of COL1 (curve of a single experiment).

As for `C[C@]12CC[C@H](O)C[C@H]1CC[C@@H]1[C@@H]2C[C@@H](O)[C@]2(C)[C@@H](C3=CC(=O)OC3)CC[C@]12O` [Digoxigenin], the IC50 in assay [1] (setting [3]) was determined as 38 ± 6 nM; in assay [2] (setting [4]), 54 nM.

As for `CCCCC[C@H](O)/C=C/[C@H]1[C@H](O)CC(=O)[C@@H]1CCCCCCC(=O)O` [Alprostadil], the IC50 in assay [1] (setting [5]) was 0.6 nM; in assay [1] (setting [3]), 1.9 ± 1.6 nM; in assay [2] (setting [6]), 2 nM; in assay [2] (setting [4]), 1.5 ± 0.7 nM. Moreover, the “effect on basal α–SMA expression” value in assay [1] (NHLF in the absence of TGF–β1) is given as “no effect”.

Consider `CCCCC[C@H](O)/C=C/[C@H]1[C@H](O)CC(=O)[C@@H]1C/C=C\CCCC(=O)O` [PGE2, prostaglandin E2], for which the IC50 in assay [1] (setting [5]) came out at 0.3 nM; in assay [1] (setting [3]), 1.2 ± 1.2 nM; in assay [2] (setting [4]), 0.4 nM.

For `Cc1cccc(-c2[nH]c(CNc3ccccc3F)nc2-c2ccc3ncnn3c2)n1` [EW–7197], the results for the IC50 in assay [1] (setting [3]), in assay [2] (setting [6]) and in assay [2] (setting [4]) were 51 ± 17 nM, 103 nM and 82 ± 30 nM, respectively.

For `COC(=O)c1ccc2c(c1)NC(=O)/C2=C(\Nc1ccc(N(C)C(=O)CN2CCN(C)CC2)cc1)c1ccccc1` [Nintedanib], the IC50 is 500 ± 120 nM in assay [1] (setting [3]) and 626 nM in assay [2] (setting [4]).

“TGF–β1: transforming growth factor–β1, stimulus of myofibroblast differentiation”: the “α-SMA / tubulin ratio” value in assay [1] (NHLF, 5 ng/mL TGF-β1) is on record as 0.51 ± 0.06. In assay [1] (NHLF, 48 hours, MS/MS (n = 8)), the “EC50 of α–SMA protein increase” value came out at 0.07 ± 0.01 ng/mL. In assay [1] (NHLF, at 48 hours), the “increase of α–SMA protein” value was “about 3 fold”.

Consider `O=C1CC[C@H](/C=C/[C@@H](O)Cc2ccccc2)N1CCCCCCc1nn[nH]n1` [Merck–19a], for which the IC50 in assay [1] (NHLF, 5 ng/ml TGF–β1, lysed 48 h after TGF–β1, normalized to tubulin, mean ± SD, read-out: MS / MS α–SMA IC50) stood at 108 ± 87 nM.

Turning to `O=C(CC1NCCCC1O)Cn1cnc2cc(Br)c(Cl)cc2c1=O` (centres unmarked) [Halofuginone], the IC50 in assay [1] (setting [5]) amounted to 24 nM; in assay [1] (setting [3]) it was 27 ± 4 nM; in assay [2] (setting [6]) it was 59 nM; in assay [2] (setting [4]), 116 ± 81 nM.

On to `CC(C)(C)c1ccc(CN(Cc2cccc(OCC(=O)O)c2)S(=O)(=O)c2cccnc2)cc1` [Evatanepag], for which the IC50 in assay [1] (setting [5]) worked out at 5.5 nM; in assay [1] (setting [3]) it was 26 ± 29 nM; in assay [2] (setting [4]) it was 24 nM.
